The subject of one assay is Sprague Dawley rats. The experiment in a line: Kainic acid stereotactic hippocampus injection model, fraction of cells damaged. In kind it is in vivo, rat. Particulars: KA at 72 hours. As to the method:
CNS-102 was administered orally to Sprague Dawley rats at 12 mg/kg. After dosing, KA was stereotactically injected into the hippocampus at 24, 48, 72, 96 and 168 hours to induce neuron damage. After 24 h, hippocampus tissue was collected, stained, and imaged. The scans were analyzed by Image J to calculate the fraction of cells having KA-induced damage. Average fraction damaged in the hippocampus from ten animals for each treatment (PBS vs. 12 mg/kg CNS-102) by time (24, 48, 72, 96 and 168 hours) combination was estimated with PROC MIXED in SAS. Comparisons of the CNS-102 treatment groups to the pooled PBS treatment at the different times can be made, giving the results tabulated below.
The fraction of cells damaged in the kainic acid model was determined on 130 rats, each receiving one dose of CNS-102 at either 0, 1, 3, 6, 12 or 24 mg/kg. PBS was used for dosing at 0 mg/kg. The linear model of the log10 percent damage versus concentration is graphically shown FIG. 5.
After dosing, KA was stereotactically injected into the hippocampus at 72 hours to induce neuron damage. After 24 h, hippocampus tissue was collected, stained, and imaged. The scans were analyzed by Image J to calculate the fraction of cells having KA-induced damage.
The indicated compounds or vehicle control were orally dosed to Sprague-Dawley rats, and Kainic acid was injected. After dosing, KA was stereotactically injected into the hippocampus at 72 hours to induce neuron damage. After 24 h, hippocampus tissue was collected, stained, and imaged. The scans were analyzed by Image J to calculate the fraction of cells having KA-induced damage. Neurons damaged by Kainic acid (mean of hippocampus CA3 neurons damaged) were quantified.

Another assay deals with Rap1. The experiment in a line: Prenylation of Rap1 in Neuro2A cells, western blotting. It is filed as cell-based, mouse. Particulars: 100 nM; with GGTI-298; percentage of control (GGTI only). As to the method: Mouse neuroblastoma Neuro2A cells were cultured in DMEM supplemented with 10% FBS for 24 hrs. The cells were treated with 102GGA derivative compounds for 24 hrs first before GGTase inhibitor GGTI-298 was added to the culture medium for additional 24 hr incubation. […] Both un-prenylated and total Rap1 protein bands were quantified using Image J and normalized to their respective loading control GAPDH. The results for control and each compound treatment were calculated as the ratio of normalized un-prenylated Rap1 to total Rap1, and averaged from two biological repeats of one experiment. The final results were presented as a percentage of the control treatments (GGTI only) from the same batch experiment. The data shown in the chart were averaged from two repeats of one experiment and presented as the ratio of normalized un-prenylated Rap1 to total Rapt Compound ID numbers in table refer to structures in Table 1 and Table 2.

A further assay deals with RhoA. The experiment in a line: Active RhoA to total RhoA in Neuro2A cells (G-LISA, ELISA). In kind it is cell-based, mouse. Particulars: 48 hrs treatment, ratio of active RhoA to total RhoA as percentage of DMSO treatments, concentration not given. Here is the method:
Mouse neuroblastoma Neuro2A cells were cultured in DMEM supplemented with 10% FBS for 24 hrs. […] Cell lysates were quantified and subjected either to active RhoA assay using G-LISA RhoA activation Assay Biochem Kit (Cytoskeleton Inc), or to total RhoA assay using Total RhoA ELISA Kit (Cytoskeleton Inc). The results were calculated as ratio of active RhoA to total RhoA and averaged from 3 biological repeats of one experiment with background subtraction. The data was presented as percentage of DMSO treatments.
A general note: An ELISA detects its analyte on a solid surface through an enzyme-linked reagent.

Another assay deals with HSP70. The assay is described as follows: HSP70 levels in Neuro 2a cells, ELISA. In kind it is cell-based, mouse. Particulars: 48 hrs compound then 24 hrs GGTI-298. Here is the method:
Mouse neuroblastoma 2a cells were cultured in DMEM with 10% FBS for 24 hrs. […] After 24 hrs cells were harvested and lysates were prepared and analyzed by ELISA for HSP70. Compound ID numbers in table refer to structures in Table 1 and Table 2.

For `CCCCCCNC(=O)OC/C=C(\C)CC/C=C(\C)CC/C=C(\C)CCC=C(C)C` [Compound 7e, n-Hexyl 2E,6E,10E-geranylgeranyl carbamate], the “Mean of Hippocampus CA3 Neurons Damaged” value in the assay on Sprague Dawley rats (12 mg/kg oral) stood at 18%. For the same compound, the “unprenylated/total RAP1 (%)” value in the assay with Rap1 is reported as 64%.
As to `COC(=O)[C@@H](NC(=O)OC/C=C(\C)CC/C=C(\C)CC/C=C(\C)CCC=C(C)C)C(C)C` [Compound 7j, Methyl 2-(S)-(−)-3-methylbutyrate 2E,6E,10E-geranylgeranyl Carbamate], the “Mean of Hippocampus CA3 Neurons Damaged” value with Sprague Dawley rats (1 mg/kg oral) came out at 13%. Besides, the “unprenylated/total RAP1 (%)” value in the assay with Rap1 was determined as 63%.
Regarding `CC(C)=CCC/C(C)=C/CC/C(C)=C/COC(=O)NC1CCCCC1` [Compound 8f, Cyclohexyl 2E, 6E-farnesyl carbamate], the “% Relative RhoGTPase Activity” value with RhoA was determined as 104.6%. In addition, the “HSP70 level, ELISA signal (absence of compounds normalized as 1.00)” value with HSP70 (10uM) was 1.29.
On to `CCC(C)NC(=O)OC/C=C(\C)CC/C=C(\C)CCC=C(C)C` (stereo not shown) [Compound 8g, Sec-Butyl 2E, 6E-farnesyl carbamate], for which the “% Relative RhoGTPase Activity” value with RhoA is recorded as 111.3%. For the same compound, the “HSP70 level, ELISA signal (absence of compounds normalized as 1.00)” value is 1.17 in the assay on HSP70 (10 nM) and 1.51 with HSP70 (10uM).
For `C=CCNC(=O)OC/C=C(\C)CC/C=C(\C)CCC=C(C)C` [Compound 8j, Allyl 2E, 6E-farnesyl carbamate] the same measures were 105.6%, 1.13 and 1.31.
On to `CCOC(=O)CCNC(=O)OC/C=C(\C)CC/C=C(\C)CCC=C(C)C` [Compound 8m, Carboethoxy-2′-ethyl 2E, 6E-farnesyl carbamate], for which the “% Relative RhoGTPase Activity” value with RhoA came to 111.4%. In addition, the “HSP70 level, ELISA signal (absence of compounds normalized as 1.00)” value in the assay with HSP70 (10uM) was 1.05.
On to `CC(C)=CCC/C(C)=C/CC/C(C)=C/COC(=O)Nc1ccccc1` [Compound 8o, Phenyl 2E, 6E-farnesyl carbamate], for which the “% Relative RhoGTPase Activity” value in the assay with RhoA is reported as 82.1%. Moreover, the “HSP70 level, ELISA signal (absence of compounds normalized as 1.00)” value in the assay on HSP70 (10uM) came to 0.99.
`CCNC(=S)OC/C=C(\C)CC/C=C(\C)CC/C=C(\C)CCC=C(C)C` [Compound 10b, Ethyl 2E,6E,10E-geranylgeranyl thiocarbamate]: the “% Relative RhoGTPase Activity” value in the assay on RhoA is given as 86.2%. In addition, the figures for the “HSP70 level, ELISA signal (absence of compounds normalized as 1.00)” value in the assay with HSP70 (100 nM) and in the assay on HSP70 (10uM) were 1.06 and 1.34, respectively.
On to `CCOC(=O)CNC(=S)OC/C=C(\C)CC/C=C(\C)CC/C=C(\C)CCC=C(C)C` [Compound 10d, Ethoxycarbonylmethyl 2E,6E,10E-geranylgeranyl thiocarbamate], for which the “Mean of Hippocampus CA3 Neurons Damaged” value with Sprague Dawley rats (2 mg/kg oral) is listed as 14%. Further, in the assay on Rap1, the “unprenylated/total RAP1 (%)” value was found to be 62%. Also, the “HSP70 level, ELISA signal (absence of compounds normalized as 1.00)” value in the assay on HSP70 (10uM) is 1.36.
Take `CC(C)=CCC/C(C)=C/CC/C(C)=C/CC/C(C)=C/COC(=S)NC1CC1` [Compound 10f, Cyclopropyl 2E,6E,10E-geranylgeranyl thiocarbamate]: in the assay with Sprague Dawley rats (20 mg/kg oral), the “Mean of Hippocampus CA3 Neurons Damaged” value was found to be 16%. Further, the “unprenylated/total RAP1 (%)” value with Rap1 turned out to be 40%. Moreover, the “HSP70 level, ELISA signal (absence of compounds normalized as 1.00)” value in the assay with HSP70 (10uM) stood at 1.57.
With `COCCNC(=S)OC/C=C(\C)CC/C=C(\C)CC/C=C(\C)CCC=C(C)C` [Compound 10i, Methoxy-2′-ethyl 2E,6E,10E-geranylgeranyl thiocarbamate], the “Mean of Hippocampus CA3 Neurons Damaged” value in the assay on Sprague Dawley rats (2 mg/kg oral) came to 22%. In addition, in the assay on Rap1, the “unprenylated/total RAP1 (%)” value came to 83%. Besides, the “HSP70 level, ELISA signal (absence of compounds normalized as 1.00)” value with HSP70 (100 nM) is on record as 1.04; with HSP70 (10uM) it was 1.08.
With `CC(C)=CCC/C(C)=C/CC/C(C)=C/CC/C(C)=C/COC(=S)NCCN1CCCCC1` [Compound 10l, Piperidinyl-2′-ethyl 2E,6E,10E-geranylgeranyl thiocarbamate], the “Mean of Hippocampus CA3 Neurons Damaged” value in the assay with Sprague Dawley rats (20 mg/kg oral) was 14%. Also, in the assay with Rap1, the “unprenylated/total RAP1 (%)” value is 164%. In addition, the “HSP70 level, ELISA signal (absence of compounds normalized as 1.00)” value was 1.16 in the assay on HSP70 (100 nM) and 1.37 in the assay on HSP70 (10uM).
Take `CC(C)=CCC/C(C)=C/CC/C(C)=C/CC/C(C)=C/c1cnco1` [Compound 14, 5-((1E,5E,9E)-2,6,10,14-tetramethylpentadeca-1,5,9,13-tetraen-1-yl)oxazole]: the “Mean of Hippocampus CA3 Neurons Damaged” value in the assay with Sprague Dawley rats (2 mg/kg oral) came out at 13%. For the same compound, in the assay with Rap1, the “unprenylated/total RAP1 (%)” value amounted to 96%. For the same compound, the “HSP70 level, ELISA signal (absence of compounds normalized as 1.00)” value in the assay on HSP70 (10uM) was 0.96.
As to `COC(=O)[C@@H](NC(=O)OC(C)CC/C=C(\C)CC/C=C(\C)CCC=C(C)C)C(C)C` (stereo partly drawn) [Compound 20j, 5E,9E-farnesyl prop-2-yl Methyl 2-(S)-(−)-3-methylbutyrate Carbamate], the “unprenylated/total RAP1 (%)” value in the assay with Rap1 is 59%. For the same compound, the “% Relative RhoGTPase Activity” value with RhoA is 85.9%.
Regarding `CC(C)=CCC/C(C)=C/CC/C(C)=C/CC/C(C)=C/C1=N[C@@H](C(C)C)CO1` [Compound 27a, (S)-4-isopropyl-2-((1E,5E,9E)-2,6,10,14-tetramethylpentadeca-1,5,9,13-tetraen-1-yl)-4,5-dihydrooxazole], the “Mean of Hippocampus CA3 Neurons Damaged” value in the assay on Sprague Dawley rats (2 mg/kg oral) was 11%. Also, the “unprenylated/total RAP1 (%)” value in the assay with Rap1 stood at 96%. Moreover, in the assay with HSP70 (100 nM), the “HSP70 level, ELISA signal (absence of compounds normalized as 1.00)” value stood at 1.02.
As for `CC(C)=CCC/C(C)=C/CC/C(C)=C/CC/C(C)=C/C1=N[C@@H](C)CO1` [Compound 27b, (S)-4-methyl-2-((1E,5E,9E)-2,6,10,14-tetramethylpentadeca-1,5,9,13-tetraen-1-yl)-4,5-dihydrooxazole], the “% Relative RhoGTPase Activity” value in the assay on RhoA is on record as 89.0%. In addition, the “HSP70 level, ELISA signal (absence of compounds normalized as 1.00)” value with HSP70 (100 nM) turned out to be 1.16; with HSP70 (10uM), 1.22.
On to `CC(C)=CCC/C(C)=C/CC/C(C)=C/CC/C(C)=C/C1=N[C@@H](Cc2ccccc2)CO1` [Compound 27g, (S)-4-benzyl-2-((1E,5E,9E)-2,6,10,14-tetramethylpentadeca-1,5,9,13-tetraen-1-yl)-4,5-dihydrooxazole], for which the “unprenylated/total RAP1 (%)” value with Rap1 is listed as 129%. Besides, the “HSP70 level, ELISA signal (absence of compounds normalized as 1.00)” value in the assay with HSP70 (10uM) is 1.11.
With `CC(C)=CCC/C(C)=C/CC/C(C)=C/CC/C(C)=C/C1=N[C@H](C(C)C)C(=O)O1` [Compound 37a, (R)-4-isopropyl-2-((1E,5E,9E)-2,6,10,14-tetramethylpentadeca-1,5,9,13-tetraen-1-yl)oxazol-5(4H)-one], the “% Relative RhoGTPase Activity” value with RhoA stood at 106.8%. The results for the “HSP70 level, ELISA signal (absence of compounds normalized as 1.00)” value in the assay with HSP70 (100 nM) and with HSP70 (10uM) were 1.04 and 1.10, respectively.
Turning to `CC(C)=CCC/C(C)=C/CC/C(C)=C/CC/C(C)=C/C1=N[C@@H](CC(C)C)C(=O)O1` [Compound 37d, (S)-4-isobutyl-2-((1E,5E,9E)-2,6,10,14-tetramethylpentadeca-1,5,9,13-tetraen-1-yl)oxazol-5(4H)-one], the “unprenylated/total RAP1 (%)” value with Rap1 is on record as 128%. Moreover, the “HSP70 level, ELISA signal (absence of compounds normalized as 1.00)” value in the assay on HSP70 (10uM) came out at 1.04.
Consider `CNC(=S)OC/C=C(\C)CC/C=C(\C)CCC=C(C)C` [Compound 43, O-((2E,6E)-3,7,11-trimethyldodeca-2,6,10-trien-1-yl) methylcarbamothioate], for which the “% Relative RhoGTPase Activity” value with RhoA amounted to 102.7%. Also, in the assay with HSP70 (10uM), the “HSP70 level, ELISA signal (absence of compounds normalized as 1.00)” value is given as 0.95.
As for `CC(C)=CCC/C(C)=C/CC/C(C)=C/CC/C(C)=C/CCC1(C)OCCO1` [Compound 105], in the assay with Rap1, the “unprenylated/total RAP1 (%)” value is reported as 64%. Further, the “% Relative RhoGTPase Activity” value in the assay on RhoA came out at 85.1%.

For the origin of these results see US20150025077A1 (COYOTE PHARMACEUTICALS, INC., priority 2012, published 2015).
